Results taken from patent US20150232420A1, “TRANSGLUTAMINASE TG2 INHIBITORS, PHARMACEUTICAL COMPOSITIONS, AND METHODS OF USE THEREOF” (priority 2012, published 2015).
pIC50: −log10 of the molar value. Like-named read-outs stand apart in the source and are kept apart here.

Columns and labels:
[1] = Liver microsomal stability (human); type: in vitro ADME
Experimental: Incubations of test compound (1 μM initial concentration, n=2) were carried out with pooled hepatic liver microsomes (0.25 mg protein/mL in 0.1 M phosphate buffer pH7.4). NADPH (1 mM) was added to initiate the reactions. The incubations were performed at 37° C. Samples (100 μL) were taken from the incubation at 0, 5, 10, 20 and 40 min and added to 100 μL of acetonitrile containing carbamazepine as analytical internal standard, to terminate the reaction. Samples were centrifuged and the supernatant fractions analyzed using LC-MS/MS.
(§1) For all incubations, the instrument response (i.e. chromatographic peak area or peak height, normalized by internal standard), at each time-point were referenced to the zero time-point samples (as 100%) in order to determine the percentage of compound remaining at that time-point. Plots of the natural logarithm (Ln) of the percent of parent remaining for each compound, versus time, were used to determine the half-life in the incubation of interest.
(§2) Half-life values (t1/2) were calculated from the relationship: t1/2 (min)=−0.693/λ where λ was the slope of the Ln concentration versus time curve.
For incubations in hepatic liver microsomes, the in vitro intrinsic clearance, Clint (μL/min/mg microsomal protein), was calculated using the following formula:
Clint=(0.693/t1/2 microsomal)*(ml incubation/mg microsomal protein)*(mg microsomal protein/g liver)*(g liver/kg body weight)

[2] = Permeability in wild type MDCK monolayers; type: in vitro ADME; conditions: dog; wild type MDCK, apical to basolateral, 10 μM, pH 7.4; read-out: MDCK-WT Papp A-B
Experimental: (§3) The MDR1-MDCKII and wild type MDCKII cell lines were cultured in accordance with the guidelines provided by Solvo Biotechnology. Both wild-type MDCK and MDR1-MDCK cells were seeded at a cell density of 2.3×10^5 cells/well into 24-well Transwell plates and cultured for three days to form monolayers. Test compound was loaded into the donor compartments of the Transwell plate (24-well) bearing MDR1-MDCK or wild type MDCK monolayers. Test compound was added to either the apical or basolateral chambers of the Transwell plate assembly at a concentration of 10 μM in Hanks' Balanced Salt Solution containing 25 mM HEPES (pH 7.4). Lucifer Yellow was added to the apical buffer in all wells and its permeation monitored to assess integrity of the cell layer. As Lucifer Yellow (LY) cannot freely permeate lipophilic barriers, a high degree of LY transport indicates poor integrity of the cell layer and wells with LY permeability >100 nm/s are rejected.

[3] = test system: wild type MDCKII cell line; assay: Permeability in wild type MDCK monolayers; type: in vitro ADME; conditions: MDCK study; in words
Experimental: as §3

[4] = kinetic solubility assay; type: physicochemical
[5] = Plasma stability (mouse); type: in vitro ADME; conditions: pooled plasma
Experimental: (§4) Incubations of test compound (1 μM initial concentration, n=2) were carried out with pooled plasma or BSA (45 mg/mL in 0.1 M phosphate buffered saline pH 7.4). The incubations were performed at 37° C. Samples (50 μL) were obtained from the incubation at 0, 10, 30, 120, 240, 360 and 1440 min, and added to 150 μL of acetonitrile containing carbamazepine as analytical internal standard to terminate the reaction. Samples were centrifuged and the supernatant fractions analyzed using LC-MS/MS.
as §1, §2

[6] = molecular target: T1, human TG2 (Homo sapiens, UniProt P21980); assay: fluorescent screening assay for human TG2; type: biochemical
T1 sequence (P21980 1-687): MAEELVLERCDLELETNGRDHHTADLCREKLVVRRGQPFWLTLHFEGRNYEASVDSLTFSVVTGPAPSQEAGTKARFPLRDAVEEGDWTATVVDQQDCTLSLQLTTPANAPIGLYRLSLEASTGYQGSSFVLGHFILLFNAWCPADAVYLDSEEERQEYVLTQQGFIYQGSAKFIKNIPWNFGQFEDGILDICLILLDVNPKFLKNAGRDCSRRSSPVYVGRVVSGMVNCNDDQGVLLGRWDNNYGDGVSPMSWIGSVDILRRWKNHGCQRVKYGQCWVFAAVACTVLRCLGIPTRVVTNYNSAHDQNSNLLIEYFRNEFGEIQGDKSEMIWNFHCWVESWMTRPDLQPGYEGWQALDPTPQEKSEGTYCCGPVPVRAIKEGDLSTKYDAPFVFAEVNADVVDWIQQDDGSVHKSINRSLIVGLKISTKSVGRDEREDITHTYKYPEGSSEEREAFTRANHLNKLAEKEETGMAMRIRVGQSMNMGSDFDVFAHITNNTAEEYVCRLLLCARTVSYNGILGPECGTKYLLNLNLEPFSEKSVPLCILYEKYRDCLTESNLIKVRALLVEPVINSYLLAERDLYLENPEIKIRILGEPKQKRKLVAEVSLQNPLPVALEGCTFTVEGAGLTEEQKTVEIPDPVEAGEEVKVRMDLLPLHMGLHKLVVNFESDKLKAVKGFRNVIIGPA
Experimental: The fluorescent screening assay for human TG2 was performed as described herein: Assay conditions were 20 nM TG2, 8 μM N,N-dimethylated Casein (NMC) and 16 μM K×D (used for all transglutaminase assays) in 25 mM Hepes, pH 7.4, 250 mM NaCl, 2 mM MgCl2, 0.5 mM CaCl2, 0.2 mM DTT, 0.05% Pluronic F-127 at 37° C. A time point was taken with a microplate reader (Safire or Ultra, Tecan; ex: 350 nm, em: 535 nm) every 3 minutes for up to 2 hours and the initial linear reaction progress was used to determine the reaction velocity as a measure for enzyme activity. Assay conditions were identical for human TG6 and similar for human TG1 and mouse TG2 apart from enzyme concentration (mTG2 at 5 nM; TG1 at 10 nM) and CaCl2 concentration (0.2 mM for mTG2; 0.05 mM for TG1). Factor XIIIa was activated using 0.1 μg/μl thrombin (Sigma) in 35 mM Tris pH 8.0 for 20 min at 30° C. and the transamidation reaction was performed with 20 nM Factor XIIIa in 50 mM Tris pH 8.0, 1.25 mM CaCl2, 0.05% Pluronic, 0.2 mM DTT. TG3 was activated with 0.02 μg/μl thrombin under the same conditions as Factor XIIIa and assay conditions were 10 nM TG3 in 50 mM Hepes, pH 8, 20 mM CaCl2, 0.2 mM DTT, 0.05% Pluronic F-127.

[7] = Plasma stability (human); type: in vitro ADME; conditions: pooled plasma
Experimental: as §4, §1, §2

[8] = molecular target: T2, P-glycoprotein (P-gp) (Homo sapiens, UniProt P08183); assay: Effective efflux ratio in MDCK-MDR1; type: in vitro ADME
T2 construct: host or cells: MDCKII (MDR1-MDCKII)
T2 sequence (P08183 whole entry): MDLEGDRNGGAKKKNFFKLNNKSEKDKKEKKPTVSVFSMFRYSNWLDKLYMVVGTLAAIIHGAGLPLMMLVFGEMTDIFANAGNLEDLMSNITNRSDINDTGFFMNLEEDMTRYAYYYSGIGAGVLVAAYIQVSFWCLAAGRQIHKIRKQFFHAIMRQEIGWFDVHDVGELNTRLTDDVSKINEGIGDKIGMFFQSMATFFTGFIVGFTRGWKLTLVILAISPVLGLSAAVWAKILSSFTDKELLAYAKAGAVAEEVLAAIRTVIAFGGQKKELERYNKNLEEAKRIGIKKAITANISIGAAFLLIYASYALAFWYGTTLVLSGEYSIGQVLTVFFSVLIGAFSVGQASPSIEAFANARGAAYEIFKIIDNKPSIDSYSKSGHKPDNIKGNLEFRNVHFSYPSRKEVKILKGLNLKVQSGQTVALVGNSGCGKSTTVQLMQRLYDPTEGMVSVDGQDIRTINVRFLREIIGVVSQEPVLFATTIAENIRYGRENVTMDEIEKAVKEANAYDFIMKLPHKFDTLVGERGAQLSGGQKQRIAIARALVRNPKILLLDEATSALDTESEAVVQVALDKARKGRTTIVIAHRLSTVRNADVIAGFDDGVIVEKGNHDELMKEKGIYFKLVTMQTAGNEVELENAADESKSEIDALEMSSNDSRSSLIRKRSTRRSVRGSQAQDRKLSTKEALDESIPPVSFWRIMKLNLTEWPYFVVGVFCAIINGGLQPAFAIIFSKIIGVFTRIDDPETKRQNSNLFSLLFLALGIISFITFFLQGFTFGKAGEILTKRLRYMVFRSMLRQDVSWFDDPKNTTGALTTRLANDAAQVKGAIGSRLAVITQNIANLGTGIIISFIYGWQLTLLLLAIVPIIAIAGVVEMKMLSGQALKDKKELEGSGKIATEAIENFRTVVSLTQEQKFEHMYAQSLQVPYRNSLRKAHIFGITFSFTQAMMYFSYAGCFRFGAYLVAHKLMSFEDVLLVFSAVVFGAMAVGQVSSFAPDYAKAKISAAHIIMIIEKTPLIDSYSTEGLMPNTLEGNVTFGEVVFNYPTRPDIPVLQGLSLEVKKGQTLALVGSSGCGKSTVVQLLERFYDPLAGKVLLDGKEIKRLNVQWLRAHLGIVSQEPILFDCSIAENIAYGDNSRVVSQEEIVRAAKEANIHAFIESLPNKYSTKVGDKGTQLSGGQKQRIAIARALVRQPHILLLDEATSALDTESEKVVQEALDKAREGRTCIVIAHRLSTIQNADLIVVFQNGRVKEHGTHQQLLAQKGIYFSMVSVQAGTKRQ
Experimental: as §3
P-glycoprotein (P-gp) is one of the main efflux transporters in brain; the potential for compound 1 and compound 2 to be effluxed by P-gp was assessed in an MDCK-MDR1 transfected cell line.

[9] = Table 7, 20 nM TG2, 37° C., read-out: IC50

| Structure (SMILES) | pIC50 [6, 9] | further results |
| --- | --- | --- |
| C=CC(=O)NCCCC[C@H](NC(=O)c1ccc2ccccc2c1)C(=O)N1CCN(c2cccc(C)n2)CC1 [N-[(5S)-6-[4-(6-methylpyridin-2-yl)piperazin-1-yl]-5-(naphthalen-2-ylformamido)-6-oxohexyl]prop-2-enamide] | 4.00 to 6.00 |  |
| C=CC(=O)NCCCC[C@H](NC(=O)OCc1ccc(F)cc1Cl)C(=O)O [(2S)-2-({[(2-chloro-4-fluorophenyl)methoxy]carbonyl}amino)-6-(prop-2-enamido)hexanoic acid] | 4.00 to 6.00 |  |
| C=CC(=O)NCCCC[C@H](NC(=O)OCc1ccc(C)cc1)C(=O)O [(2S)-2-({[(4-methylphenyl)methoxy]carbonyl}amino)-6-(prop-2-enamido)hexanoic acid] | 4.00 to 6.00 |  |
| C=CC(=O)NCCCC[C@H](NC(=O)OC)C(=O)O [(2S)-2-[(methoxycarbonyl)amino]-6-(prop-2-enamido)hexanoic acid] | 4.00 to 6.00 |  |
| C=CC(=O)NCCCC[C@H](NC(=O)OCc1ccc(CCCC)cc1)C(=O)O [(2S)-2-({[(4-butylphenyl)methoxy]carbonyl}amino)-6-(prop-2-enamido)hexanoic acid] | 4.00 to 6.00 |  |
| C=CC(=O)NCCCC[C@H](NC(=O)OCc1ccccc1)C(=O)N(C)C [benzyl N-[(1S)-1-(dimethylcarbamoyl)-5-(prop-2-enamido)pentyl]carbamate] | 4.00 to 6.00 |  |
| C=CC(=O)N1CCC(CC(NC(=O)OC(C)(C)C)C(=O)O)CC1 (stereo not drawn) [2-{[(tert-butoxy)carbonyl]amino}-3-[1-(prop-2-enoyl)piperidin-4-yl]propanoic acid] | 4.00 to 6.00 |  |

Further lines, with some results ahead:

| pIC50 [6, 9] | Structure (SMILES) | further results |
| --- | --- | --- |
| > 7.00 | C=CC(=O)NCCCC[C@H](NC(=O)OCc1ccccc1)C(=O)N1CCN(c2ccccc2Cl)CC1 [compound 1, benzyl N-[(2S)-1-[4-(2-chlorophenyl)piperazin-1-yl]-1-oxo-6-(prop-2-enamido)hexan-2-yl]carbamate] | metabolic stability in liver microsomal stability testing ([1]; human, in words): poor; microsomal CLint at 1 μM ([1]; pooled liver microsomes, pH 7.4, human liver microsomes, 1 μM, 0.25 mg protein/mL, NADPH, read-out: hLM Clint): > 1390 µL/min/mg; Papp A→B at 10 μM [2]: 14.2 ×10⁻⁶ cm/s; permeability [3]: good permeability; solubility in a kinetic solubility assay ([4]; in words): good solubility; Aq. Sol. ([4]; kinetic solubility): 0.87 mg/mL; half-life at 1 μM ([5]; mouse plasma, 1 μM, 37° C., read-out: Mouse Plasma T1/2): > 24 h; half-life at 1 μM ([5]; read-out: half-life in mouse plasma): > 24 h; pIC50 ([6]; Table 8, read-out: TG2 IC50): 7.85; half-life at 1 μM ([7]; human plasma, 1 μM, 37° C., read-out: Human Plasma T1/2): > 24 h; half-life at 1 μM ([7]; read-out: half-life in human plasma): > 24 h; active efflux via P-gp ([8]; MDCK-MDR1 transfected cell line, in words): high active efflux; MDCK-MDR1 EER ([8]; effective efflux ratio, 10 μM): 118 |
| 4.00 to 6.00 | C=CC(=O)NCCCC[C@H](NC(=O)OCc1ccccc1)C(=O)NC1C2CC3CC(C2)CC1C3 (stereo partly drawn) [benzyl N-[(1S)-1-[(adamantan-2-yl)carbamoyl]-5-(prop-2-enamido)pentyl]carbamate] |  |
| 6.00 to 7.00 | C=CC(=O)NCCCC[C@H](NC(=O)OCc1ccccc1)C(=O)N1CCN(C)CC1 [benzyl N-[(2S)-1-(4-methylpiperazin-1-yl)-1-oxo-6-(prop-2-enamido)hexan-2-yl]carbamate] |  |
| 6.00 to 7.00 | C=CC(=O)NCCCC[C@H](NC(C)=O)C(=O)N1CCN(c2cccc(C)n2)CC1 [N-[(5S)-5-acetamido-6-[4-(6-methylpyridin-2-yl)piperazin-1-yl]-6-oxohexyl]prop-2-enamide] |  |
| 4.00 to 6.00 | C=CC(=O)Nc1ccc(C[C@H](NC(=O)OCc2ccccc2)C(=O)O)cc1 [(2S)-2-{[(benzyloxy)carbonyl]amino}-3-[4-(prop-2-enamido)phenyl]propanoic acid] |  |
| > 7.00 | C=CC(=O)NCCCC[C@H](NC(=O)OCc1ccccc1)C(=O)N1CCN(c2cccc(C)n2)CC1 [benzyl N-[(2S)-1-[4-(6-methylpyridin-2-yl)piperazin-1-yl]-1-oxo-6-(prop-2-enamido)hexan-2-yl]carbamate] |  |
| > 7.00 | C=CC(=O)NCCCC[C@H](NC(=O)OCc1ccccc1)C(=O)N1CCC(c2ccccc2)CC1 [benzyl N-[(2S)-1-oxo-1-(4-phenylpiperidin-1-yl)-6-(prop-2-enamido)hexan-2-yl]carbamate] |  |
| 6.00 to 7.00 | C=CC(=O)NCCCC[C@H](NC(=O)OCc1ccccc1)C(=O)N1CCCCCC1 [benzyl N-[(2S)-1-(azepan-1-yl)-1-oxo-6-(prop-2-enamido)hexan-2-yl]carbamate] |  |
| 6.00 to 7.00 | C=CC(=O)NCCCC[C@H](NC(=O)OCc1ccccc1)C(=O)N1CCN(C(=O)C2CC2)CC1 [benzyl N-[(2S)-1-(4-cyclopropanecarbonylpiperazin-1-yl)-1-oxo-6-(prop-2-enamido)hexan-2-yl]carbamate] |  |
| 6.00 to 7.00 | C=CC(=O)NCCCC[C@H](NC(=O)OCc1ccccc1)C(=O)N1CCN(c2ccc(C(F)(F)F)cn2)CC1 [benzyl N-[(2S)-1-oxo-6-(prop-2-enamido)-1-{4-[5-(trifluoromethyl)pyridin-2-yl]piperazin-1-yl}hexan-2-yl]carbamate] |  |
